Assay: xn = mol fraction of the nth substance listed
Conditions: 101 kPa

ClC(Cl)Cl + CCCCCC
viscosity [mPa·s]
Conditions | x2 = 0.098 | x2 = 0.202 | x2 = 0.2873 | x2 = 0.4056 | x2 = 0.5009 | x2 = 0.5885 | x2 = 0.7253 | x2 = 0.8116 | x2 = 0.9008
293.15 K | 0.5269 | 0.4839 | 0.4558 | 0.42 | 0.3965 | 0.3762 | 0.3509 | 0.3368 | 0.3242
298.15 K | 0.5028 | 0.4606 | 0.434 | 0.3996 | 0.3781 | 0.3582 | 0.3341 | 0.3206 | 0.309
303.15 K | 0.4779 | 0.4396 | 0.4142 | 0.3811 | 0.3628 | 0.3413 | 0.3186 | 0.3056 | 0.2945
313.15 K | 0.4362 | 0.3998 | 0.3783 | 0.3472 | 0.3308 | 0.311 | 0.2912 | 0.2786 | 0.2683

O=[N+]([O-])[O-].[Na+] + N
293.15 K
Conditions | viscosity [mPa·s]
x1 = 0.02 | 0.182
x1 = 0.039 | 0.225
x1 = 0.081 | 0.374

CC(=O)OCc1ccccc1 + Cc1ccccc1C
viscosity [mPa·s]
Conditions | x1 = 0.0897 | x1 = 0.1695 | x1 = 0.2706 | x1 = 0.3684 | x1 = 0.4671 | x1 = 0.562 | x1 = 0.6623 | x1 = 0.7598 | x1 = 0.8617 | x1 = 0.9299
303.15 K | 0.751 | 0.802 | 0.873 | 0.957 | 1.047 | 1.142 | 1.252 | 1.361 | 1.478 | 1.563
313.15 K | 0.671 | 0.72 | 0.783 | 0.845 | 0.909 | 0.976 | 1.054 | 1.135 | 1.224 | 1.285

Cc1ccc(S(=O)(=O)[O-])cc1.O=C1CCC[NH+]1C1CCCCC1 + O
viscosity [mPa·s]
Conditions | x1 = 0.002718 | x1 = 0.008026 | x1 = 0.01073
298.15 K | 1.035 | – | 1.485
303.15 K | – | 1.165 | –

CCCCCCCCCCCCCCCC + CCCCO
Conditions | viscosity [mPa·s]
298.15 K, x2 = 0.3 | 2.675
323.15 K, x2 = 0.8 | 1.435
